Patent publication US11360104B2, “Microbial-based biosensors” (TRUSTEES OF BOSTON UNIVERSITY, priority 2017, dated 2022)

Tests used:
[1] = target: PinR (Nocardioides simplex (Pimelobacter simplex), UniProt A0A0A1DUF2); experiment: Cross-reactivity assay of steroids using sensor 3; format: biochemical
Method: The cross-reactivity of progesterone regarding the different steroids was calculated with the following equation:
Description for a typical experiment, using a molar ratio of QD/TF/DNA=1/4/18.
50 uL of the sensor (QD/TF/DNA) was then splitted in 3×9 centrifuge tubes to which 10 uL of progesterone at the desired concentration is added. […] A 384 well plate was filled with 60 uL of each solution. The fluorescence intensity was monitored on a spectrofluorimeter from 535 nm to 800 nm exciting at 400 nm, equipped with a 450 nm long-pass filter in emission.

[2] = test system: steroid responsive genome island (SRGI); experiment: Whole transcriptome RNA-Seq of steroid treated P. simplex; format: cell-based, Pimelobacter simplex; conditions: P. simplex exposed to steroid vs solvent control, Log2 fold change
Source text: In order to identify steroid binding Transcription Factors, a whole transcriptome RNA sequencing (RNA-Seq) screen was developed (FIG. 7). The growth of Pimelobacter simplex bacteria was profiled with respect to the starting inoculation density, solvent toxicity, and the addition of steroids (FIG. 16). […] P. simplex bacteria were screened against the steroid solvents ethanol (EtOH) and dimethyl sulfoxide (DMSO). […] Steroid growth curves were similarly performed using a starting OD of 0.005 and constant solvent dosing with titrations of steroids. […] P. simplex bacteria were grown in the presence of 700 μM testosterone, 21.88 μM progesterone, 87.50 μM estrone, 21.88 μM 17β-estradiol, 21.88 μM hydrocortisone, or 175.00 μM aldosterone concentrations were selected for comparison.
Using accession gene tags, genes were annotated for steroid relevant enzymes or transcription factors. […] Allosteric TF binding sequences are often palindromes and typically located near the start of its gene location in an intergenic space. With such a design, the allosteric TF can regulate itself or the open reading frame (ORF) near it in response to its effector molecule. […] Once identified, the TFs were cloned and recombinantly expressed for thorough characterization.
Cells were grown in 6 mL volumes of media at the OD, solvent, and steroid concentrations found from the growth curves in 14 mL polypropylene round-bottom tubes (Corning #352059) in technical duplicate. The same controls as in the steroid exposure growth curve were used for setting up RNA extraction samples. The cells were incubated at their corresponding temperature with continuous orbital shaking at 150 rpm until the end of lag-phase, mid-log phase, or stationary phase from the start of inoculation. Afterward, samples were removed and a 1:1 ratio of RNAprotect Bacteria Reagent (Qiagen #76506) was added followed by spinning down at 4° C. for 10 minutes at 4000 g. Supernatant was removed and the pellet re-suspended in 300 μL of RNAprotect and transferred into 2.0 mL Safe-Lock Tubes (Eppendorf #3101). The samples were then spun down once again at 4° C. for 10 minutes at 10000 g. Once the supernatant has been removed the samples were placed on ice and ready for RNA extraction. RNA extraction was done by Qiacube (Qiagen #9001292) set to the RNeasy Protect Bacteria Mini Kit protocol of bacterial cell pellet with enzymatic lysis. Tube A was prepared as described except with the addition of 150 mg/mL lysozyme (Sigma-Aldrich #L6876) and 20 mg/mL proteinase K (Roche #03115879001) all diluted in 1xTE buffer. RNA samples were subsequently quantified using Qubit RNA HS Assay Kit (Thermo Fisher Scientific #Q32852) and analyzed using a RNA 6000 Pico Kit (Agilent 5067-1513) in a 2100 Bioanalyzer (Agilent G2939A). RNA samples were either immediately used for RNA-Seq library preparation or stored long-term at −80° C.
RNA-Seq libraries were then produced from these samples using a slightly modified ScriptSeq v2 RNA-Seq Library Preparation Kit (Illumina 455A/22124) ensuring use of unique index primers through ScriptSeq Index PCR Primers (Sets 1-4) 48 rxns/set (Illumina #SSIP1234).

[3] = test system: Pimelobacter simplex; experiment: Solvent and steroid exposure growth curves; conditions: P. simplex, starting OD 0.005, constant solvent

PinR, sequence (A0A0A1DUF2 entry or part of it): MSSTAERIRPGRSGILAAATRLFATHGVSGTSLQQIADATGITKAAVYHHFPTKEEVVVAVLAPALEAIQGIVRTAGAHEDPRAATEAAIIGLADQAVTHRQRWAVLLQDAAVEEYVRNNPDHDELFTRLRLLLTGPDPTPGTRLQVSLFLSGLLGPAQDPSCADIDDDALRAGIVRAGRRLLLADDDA

CC(=O)[C@H]1CC[C@H]2[C@@H]3CCC4=CC(=O)CC[C@]4(C)[C@H]3CC[C@]12C [PRG, Progesterone]
IC50 [1]: 59 ± 4 nM
P (slope of fit) ([1]; sensor 3, HEPES 1×): 1.31 ± 0.10
upregulation of genes inside the SRGI [2]: observed
highest steroid concentration exhibiting normal growth profile [3]: 21.88 µM
